Data published in patent US20220280469A1, “PHARMACEUTICAL COMPOUND AND PREPARATION METHOD THEREFOR AND USE THEREOF” (priority 2019, published 2022).

Columns and labels:
[1] = system: PANC-1 subcutaneous transplantation tumor; test: Anti-tumor effect in PANC-1 subcutaneous transplantation tumor model; type: in vivo, BALB/c Nude mouse; conditions: 4 mg/kg cisplatin (effective dose), once a week, 4 times
Description: The human pancreatic cancer cell strain PANC-1 was cultured in a DMEM high-glucose medium containing 10% FBS. Before being used, the cells were digested with pancreatin and centrifuged for 3 min at 800 r·min^−1 to remove the supernatant. The cells were resuspended in a serum-free DMEM medium, matrigel was added at a ratio of 1:1, and the number of the cells was adjusted to 5×10^6/mL. The cell suspension was inoculated subcutaneously to the right thigh at 100 μL/mouse. […] The tumor-bearing mice were randomly divided into 5 groups with 6 mice in each. […] The drugs were administered via tail vein injection. The administration was performed once a week, 4 times in total. The long (l) and short (r) diameters of the tumors were measured with a vernier caliper every other day to calculate tumor volume. All mice were sacrificed on day 11 after the administration cycle was completed, and they were dissected to get the tumors, which were then weighed. The tumor volume calculation formula was as follows: V=(l×r^2)/2.

[2] = Pharmacokinetics and tumor targeting of Pt in tumor tissue of pancreatic cancer orthotopic transplantation model mice; type: in vivo, mouse; conditions: 8 mg/kg
Description: Mouse pancreatic cancer cells transfected with luciferase reporter genes were used to prepare mouse pancreatic cancer orthotopic transplantation models. The tumor volume of the mice were determined by injecting […] into tail veins, and the mice with similar tumor volume were selected for evaluation of systemic PK and tumor-targeting property. […] Pharmacokinetic parameters were calculated using PK Solver 2.0.

[3] = system: MIA PaCa-2 pancreas orthotopic transplantation tumor; test: Kaplan-Meier survival in MIA PaCa-2 pancreas orthotopic transplantation model; conditions: once every 7 days, three times
Description: Pancreas of BALB/c nude mice was transplanted orthotopically with Mia paca-2 cells (reporter gene: luciferase) to prepare pancreatic cancer transplantation in situ models, and then the mice were randomly divided into 4 groups with 6 mice in each, and administered with drugs 10 days after the models were established. […] The drugs were administered once every 7 days, three times in total. The mice were weighed every other day, and the survival state of the mice was recorded. Kaplan-Meier survival curves were drawn to examine the influence of different drug treatments on the survival state of the mice.

## N.N.[Cl][Pt][Cl] [cisplatin, cis-diamminedichloroplatinum]
[1]
  body weight of the mice during the administration process: remarkably decreased
[1]; tail vein
  inhibition of PANC-1 subcutaneous transplantation tumor (tumor volume, tumor weight): no significant inhibition effect
[2]
  ID% (drug amount at a tumor site x 100%/injected drug amount): less than 5%
[3]
  body weight of the mice in the whole treatment process: significantly reduced
